Measured values reported in ChEMBL document CHEMBL5576095, “Research progress of multi-target HDAC inhibitors blocking the BRD4-LIFR-JAK1-STAT3 signaling pathway in the treatment of cancer” (Bioorg Med Chem, 2024).
pIC50: −log10 of the molar value.

Assays:
Histone deacetylase 1 = Histone deacetylase 1 (Homo sapiens, UniProt Q13547); test: Inhibition of HDAC1 (unknown origin)
[1] = target: Tyrosine-protein kinase JAK1 (Homo sapiens, UniProt P23458); test: Inhibition of JAK1 (unknown origin)
[2] = Inhibition of CD4 (unknown origin)
MV4-11 = test: Antiproliferative activity against human MV4-11 cells assessed as reduction in cell growth; type: functional, cell-based
[3] = tested on: KATO III stomach cancer cell line; test: cells; conditions: Homo sapiens
Description: Antiproliferative activity against human KATO III stomach cancer cell line

Histone deacetylase 1, sequence (Q13547 whole entry): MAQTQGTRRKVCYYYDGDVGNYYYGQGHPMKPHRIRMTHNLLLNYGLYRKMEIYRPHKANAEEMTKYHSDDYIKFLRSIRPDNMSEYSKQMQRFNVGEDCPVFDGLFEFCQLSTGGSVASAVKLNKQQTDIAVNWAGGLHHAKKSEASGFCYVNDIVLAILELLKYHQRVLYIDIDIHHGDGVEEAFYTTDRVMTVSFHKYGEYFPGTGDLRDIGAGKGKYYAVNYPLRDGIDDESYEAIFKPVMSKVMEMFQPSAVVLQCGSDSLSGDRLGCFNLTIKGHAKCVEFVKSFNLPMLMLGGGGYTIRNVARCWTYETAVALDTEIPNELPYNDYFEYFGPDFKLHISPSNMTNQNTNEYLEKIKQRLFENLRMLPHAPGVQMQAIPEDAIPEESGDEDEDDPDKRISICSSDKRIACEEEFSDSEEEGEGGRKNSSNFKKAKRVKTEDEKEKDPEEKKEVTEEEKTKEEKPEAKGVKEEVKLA
Tyrosine-protein kinase JAK1, sequence (P23458 whole entry): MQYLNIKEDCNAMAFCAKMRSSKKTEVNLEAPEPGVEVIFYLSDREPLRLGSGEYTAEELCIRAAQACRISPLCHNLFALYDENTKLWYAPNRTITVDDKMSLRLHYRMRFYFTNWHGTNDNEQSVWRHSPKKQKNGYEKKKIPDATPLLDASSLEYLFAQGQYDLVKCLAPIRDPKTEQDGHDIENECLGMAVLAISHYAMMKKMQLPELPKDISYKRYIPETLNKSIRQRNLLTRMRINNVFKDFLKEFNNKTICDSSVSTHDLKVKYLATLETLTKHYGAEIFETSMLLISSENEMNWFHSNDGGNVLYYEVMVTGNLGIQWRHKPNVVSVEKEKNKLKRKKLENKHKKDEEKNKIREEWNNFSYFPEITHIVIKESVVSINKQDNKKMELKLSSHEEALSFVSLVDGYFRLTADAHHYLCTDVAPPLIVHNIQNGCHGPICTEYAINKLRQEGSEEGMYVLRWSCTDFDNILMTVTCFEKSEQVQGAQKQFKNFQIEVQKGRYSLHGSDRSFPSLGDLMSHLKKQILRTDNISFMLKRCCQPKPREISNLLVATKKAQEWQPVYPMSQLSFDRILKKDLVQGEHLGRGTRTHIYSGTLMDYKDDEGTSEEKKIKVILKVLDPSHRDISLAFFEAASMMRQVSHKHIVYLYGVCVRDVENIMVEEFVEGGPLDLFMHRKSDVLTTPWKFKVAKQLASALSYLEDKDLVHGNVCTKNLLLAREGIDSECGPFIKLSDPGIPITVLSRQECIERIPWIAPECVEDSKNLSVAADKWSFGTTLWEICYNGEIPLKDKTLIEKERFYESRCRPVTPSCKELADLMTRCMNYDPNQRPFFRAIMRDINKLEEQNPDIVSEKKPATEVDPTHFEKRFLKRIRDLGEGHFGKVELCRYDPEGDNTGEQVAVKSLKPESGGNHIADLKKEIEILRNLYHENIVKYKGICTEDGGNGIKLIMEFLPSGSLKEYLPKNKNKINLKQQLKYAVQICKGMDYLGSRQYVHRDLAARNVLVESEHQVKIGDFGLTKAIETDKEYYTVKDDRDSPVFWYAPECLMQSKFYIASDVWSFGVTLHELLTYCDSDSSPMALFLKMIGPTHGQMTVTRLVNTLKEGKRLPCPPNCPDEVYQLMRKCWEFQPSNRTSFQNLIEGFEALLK

Compound: CCn1c(C)nc2c(F)cc(-c3nc(Nc4ccc(CNC(=O)CCCCCCC(=O)NO)cc4)ncc3F)cc21
- pIC50 (Histone deacetylase 1): 7.59
- pIC50 [1]: 7.66
- pIC50 [2]: 8.92

Compound: CCNC(=O)c1cc2c(-c3cc(C(C)(C)O)ccc3Oc3c(C)cc(F)cc3C)cn(C)c(=O)c2[nH]1 [ABBV-744]
- pIC50 (MV4-11): 7.40

Compound: COc1cc(OC)cc(N(CCNC(C)C)c2ccc3ncc(-c4cnn(C)c4)nc3c2)c1 [ERDAFITINIB]
- pIC50 [3]: 8.40
